{"source": "patent US4389394A", "about": "“Methods for reducing dental caries” (Talres Development (N.A.) N.V., priority 1978, dated 1983)", "key": {"[1]": {"test_system": "Streptococcus mutans NCTC 10832", "test": "(A) Effect on reduction of pH by Streptococcus mutans", "format": "cell-based", "conditions": "for pH: no amino acids, 0.05 molar each saccharide, 37° C", "source_text": "Mouth flora such as S. mutans cause dental caries by producing acid which erodes the tooth enamel. The cells exude a polysaccharide which firmly adheres them to the tooth surfaces as plaque, thus enhancing the local erosion by the acid. The effect of chlorodeoxysucroses on acid production by S. mutans in sucrose solutions was studied in comparison with the effect produced by xylitol, an agent proposed as a caries preventative.\n(§1) Plain aqueous solutions were used and also solutions containing amino acids (protein hydrolysate) 1% w/v to approximate the buffering effect of natural saliva. Control experiments were effected using no saccharide in order to illustrate the endogenous metabolism of the organism. Each experiment was quadruplicated and was run at 37° C. The pH was measured at 0, 0.5, 1, 1.5,2, 3 and 4 hours."}, "S. mutans [2]": {"test_system": "S. mutans", "test": "(B) Adherence to teeth: deposition of suspended cells on to glass (Magiscan image analyser)", "format": "cell-based, Streptococcus mutans", "source_text": "(§2) The extent to which cells of S. mutans adhere to teeth was investigated using a recognized model system. Solutions of the same substances as in (A) were made up, and the degree of deposition of suspended cells on to glass was studied using a \"Magiscan\" image analyser (Talyer et al., 1978 Praktischen Metallographie, Sonderbande 8: 433-442).\nEach reading is the mean of 40 determinations."}, "S. mutans [3]": {"test_system": "S. mutans", "test": "Scanning electron microscopy of glass with adherent cells", "format": "cell-based, Streptococcus mutans", "conditions": "sucrose medium; qualitative"}, "S. mutans [4]": {"test_system": "S. mutans", "test": "(C) Further tests on pH reduction", "format": "cell-based, Streptococcus mutans", "conditions": "for effect on acid production / pH: statement in words, pooled 2, 3 and 4 hours", "experimental": "as §1\nTwelve sets of tests were carried out in the same way as described above at (A) but using solutions which were 0.055 molar in the respective chlorodeoxy derivative.\nSolutions of the following were employed:\n(i) Saline, negative control for endogenous metabolism\n(ii) Sucrose, positive control\n(iii) 6,1',6'-trichloro-6,1',6'-trideoxysucrose, compound no. 7.\n(iv) Compound no. 7 plus sucrose.\n(v) 1',6'-dichloro-1',6'-dideoxysucrose, compound no. 4\n(vi) Compound no. 4 plus sucrose\n(vii) 4,1',6'-trichloro-4,1',6'-trideoxygalactosucrose, Compound no. 5.\n(viii) Compound no. 5 plus sucrose\n(ix) 4,6,6'-trichloro-4,6,6'-trideoxygalactosucrose, Compound no. 6\n(x) Compound no. 6 plus sucrose\n(xi) 1'-chloro-1'-deoxysucrose, compound no. 1\n(xii) Compound no. 1 plus sucrose\nThe acid production was monitored as before."}, "S. mutans [5]": {"test_system": "S. mutans", "test": "(D) Further tests on adherence to teeth", "format": "cell-based, Streptococcus mutans", "conditions": "glass slide; 0.055 molar; Duncan procedure", "experimental": "as §2\nWhile recording the pH during the tests of (C), the adherence was monitored in the same way as in (B). The percentage coverage of a glass slide was determined at 0.5 and 4 hours for each solution, and the results treated by the Duncan procedure."}, "[6]": {"test_system": "germ-free Liverpool hooded rats inoculated orally with Streptococcus mutans NCT 10823", "test": "(E) Gnotobiotic rat caries model", "format": "in vivo", "conditions": "21 days; diet 33% skim milk, 67% carbohydrate; S. mutans NCT 10823; statement in words", "experimental": "Studies were carried out on the effect of chlorodeoxysucroses on cariogenic food products, using 4,1',6'-trichloro-4,1',6'-trideoxygalactosucrose as the chlorodeoxysucrose. Cariogenicity was examined using the gnotobiotic rat caries model (see for example Drucker and Green, Arch. Oral Biol. Vol 23 pp 183-187).\nThe experiment involved the use of germ-free Liverpool hooded rats inoculated orally with Streptococcus mutans NCT 10823 (a caries-producing organism). The rats were fed a diet consisting essentially of 33% by weight skim milk and 67% by weight carbohydrate. The carbohydrate consisted of (i) starch, or (ii) sucrose, or (iii) starch together with sufficient of the chlorodeoxysucrose to give a sweetness as perceived by a human of the same order as that of the sucrose. After 21 days, the rats were sacrificed and the lower jaw lesions were counted to give a caries score for each rat (see Konig, Marthaler and Muhlemann, Dt. Zahn-Mund-u. Kieferheilk Vol. 29, 99-127)."}, "[7]": {"test": "Acute oral toxicity in the rat", "conditions": "in vivo, per os, maximum dose practically possible", "source_text": "For example, in the rat the compound no."}, "[8]": {"conditions": "West German Offenlegungsschrift No. 2700036; cited from earlier work"}, "[9]": {"conditions": "no amino acid, mean of 40 determinations"}}, "note": "“Also recorded” adds a separate entry of the source."}
{"smiles": "OC[C@H]1O[C@H](O[C@]2(CCl)O[C@H](CCl)[C@@H](O)[C@@H]2O)[C@H](O)[C@@H](O)[C@H]1Cl", "note": "[Compound no. 5, 4-chloro-4-deoxy-α-D-galactopyranosyl-1,6-dichloro-1,6-dideoxy-β-D-fructofuranoside]", "values": [{"measurement": "pH", "setting": "[1]; 0 h", "value": 5.88}, {"measurement": "pH", "setting": "[1]; 0.5 h", "value": 5.67}, {"measurement": "pH", "setting": "[1]; 1.0 h", "value": 5.69}, {"measurement": "pH", "setting": "[1]; 1.5 h", "value": 5.69}, {"measurement": "pH", "setting": "[1]; 2.0 h", "value": 5.61}, {"measurement": "pH", "setting": "[1]; 3.0 h", "value": 5.67}, {"measurement": "pH", "setting": "[1]; 4.0 h", "value": 5.63}, {"measurement": "Mean pH", "setting": "[1]; Duncan Procedure sub-sets, amino acids where named in the solution", "value": 5.64}, {"measurement": "effect on acid production", "setting": "[1]; statement in words, listed as TGS", "value": "always had a favourable effect which was statistically significant; also recorded: reduced the amount of acid produced; also recorded: on its own had a favourable effect against the endogenous metabolism of the micro-organism"}, {"measurement": "degree of adhesion", "setting": "S. mutans [2]; Mann Whitney U-test, statement in words, listed as TGS", "value": "reduces the degree of adhesion significantly; also recorded: the reduction is greater than that of xylitol"}, {"measurement": "Coverage (%) after 0.5 h", "setting": "S. mutans [2]; [9]", "value": 30.42, "unit": "%"}, {"measurement": "Coverage (%) after 4.0 h", "setting": "S. mutans [2]; [9]", "value": 64.81, "unit": "%"}, {"measurement": "extracellular coating and size of clumps of adherent cells", "setting": "S. mutans [3]", "value": "found to reduce the extracellular coating and the size of the clumps"}, {"measurement": "Mean pH", "setting": "S. mutans [4]; 0.055 molar chlorodeoxy derivative, pooled data for 2, 3 and 4 hours, Duncan procedure", "value": 6.82}, {"measurement": "effect on acid production / pH", "setting": "S. mutans [4]", "value": "give a better result than the negative control, saline"}, {"measurement": "effect on acid production / pH", "setting": "S. mutans [4]; listed as (vii)", "value": "one pH unit less than that of solution (ii)"}, {"measurement": "effect on acid production / pH", "setting": "S. mutans [4]; listed as no. 5", "value": "especially effective"}, {"measurement": "% coverage after 0.5 hours", "setting": "S. mutans [5]", "value": 41.4, "unit": "%"}, {"measurement": "% coverage after 4 hours", "setting": "S. mutans [5]", "value": 58.4, "unit": "%"}, {"measurement": "cariogenicity (caries score)", "setting": "[6]", "value": "appeared to be decreasing the cariogenicity of the starch"}, {"measurement": "LD50", "setting": "[7]", "value": "> 16000", "unit": "mg/kg"}, {"measurement": "sweetness relative to sucrose", "setting": "[8]", "value": "many times sweeter than sucrose"}]}
